The record followed here is patent publication US8530652B2, “Pyrrolopyrazoles, potent kinase inhibitors” (Agouron Pharmaceuticals, Inc., priority 2005, dated 2013).

The structures appear in SMILES notation.

Chain of PAK4 kinase domain (PAK4 KD) (O96013 321-572): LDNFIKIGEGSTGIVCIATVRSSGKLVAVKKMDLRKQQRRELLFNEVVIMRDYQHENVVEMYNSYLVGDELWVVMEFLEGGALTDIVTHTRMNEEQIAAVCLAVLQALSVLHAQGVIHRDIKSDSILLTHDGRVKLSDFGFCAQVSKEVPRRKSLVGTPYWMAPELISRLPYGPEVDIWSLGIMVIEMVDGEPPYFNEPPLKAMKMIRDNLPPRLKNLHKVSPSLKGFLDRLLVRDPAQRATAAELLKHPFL

The target in the experiment is PAK4 kinase domain (PAK4 KD) (Homo sapiens (Human), UniProt O96013). As to the kind of experiment: PAK4 kinase domain enzymatic assay (coupled PK/LDH, NADH absorbance at 340 nm). Format: biochemical. As to conditions: PAK4 kinase domain, 25 nM PAK4 KD, 0.04 mM ATP, pH 7.5. An excerpt:
Cloning, expression, and purification of recombinant PAK4 Kinase domain (PAK4 KD): The cDNA coding for PAK4 was amplified from the EST clone (#12) (purchased from Research Genetics) by using PCR. […] The PCR amplified product was cloned into Topo vector (Invitrogen Inc.), and verified by DNA sequencing. PAK4 KD was then subcloned into expression plasmid pET28a(+), pET24a(+), or pGST4.5. The recombinant plasmids containing PAK4 KD was transformed into BL21(DE3) cells for recombinant protein expression. […] The cells were then harvested and lyzed for protein purification. Ni-NTA column (pET28a(+), pET24a(+)) and glutathione column (pGST4.5) were used for the purification.
PAK4 kinase domain enzymatic assay conditions: the enzymatic activity of PAK4 KD was measured by its ability to catalyze the transfer of a phosphate residue from a nucleoside triphosphate to an amino acid side chain of a commercially available peptide (amino acid sequence […]). The conversion of ATP to ADP accompanies the catalytic reaction. The PAK4 KD catalyzed production of ADP from ATP was coupled to the oxidation of NADH through the activities of pyruvate kinase (PK) and lactate dehydrogenase (LDH). The conversion of NADH to NAD^+ is monitored by the decrease in absorbance at 340 nm (e340=6.22 cm^−1mM^−1) using a Molecular Devices SPECTRAMAX 190 in conjunction with the Biomec FX. Typical reaction solutions contain 2 mM phosphoenolpyruvate, 0.35 mM NADH, 10 mM MgCl2, 1 mM DTT, 0.4 mM peptide ([…]) 0.04 mM ATP, 1 units/mL PK, 1 units/mL LDH, 0.01% Tween 20 in 50 mM HEPES, pH 7.5. […] The PAK KD Ki of each compound of the invention (the inhibitor) was calculated based on multiple of Percent Inhibition numbers of the inhibitor at different inhibitor concentrations. The peptide (amino sequence […]) was purchased from American Peptide Company. NADH, MgCl2, HEPES, DTT, ATP and PK/LDH were purchased from Sigma. Tween 20 was purchased from Calbiochem.
The compound `CN(C)c1nc(Nc2n[nH]c3c2CN(C(=O)NC2C[C@@H]2c2ccccc2)C3(C)C)nc(N2CCC[C@H]2C(N)=O)n1` (some centres unmarked) [Example 22] gave a Ki of 720 nM. `CC1(C)c2[nH]nc(Nc3cc(Cl)nc(Cl)n3)c2CN1C(=O)N[C@H]1C[C@@H]1c1ccccc1` (relative stereo) [Example 4, 3-[(2,6-dichloropyrimidin-4-yl)amino]-6,6-dimethyl-N-[trans-2-phenylcyclopropyl]-4,6-dihydropyrrolo[3,4-c]pyrazole-5(1H)-carboxamide] yielded a Ki of 110 nM. As for `CC1(C)c2[nH]nc(Nc3nc(C4CC4)nc4ccccc34)c2CN1C(=O)N[C@@H]1C[C@H]1c1ccccc1` (relative stereo) [Example 86, 3-[(2-cyclopropylquinazolin-4-yl)amino]-6,6-dimethyl-N-[trans-2-phenylcyclopropyl]-4,6-dihydropyrrolo[3,4-c]pyrazole-5(1H)-carboxamide], the Ki is 55 nM. Against the preceding compound, the Ki is about 2-fold lower. `CC1(C)c2[nH]nc(Nc3cc(C(F)(F)F)ccn3)c2CN1C(=O)N[C@H]1C[C@@H]1c1ccccc1` (relative stereo) [Example 25, 3-[(4-trifluoromethylpyridin-2-yl)amino]-6,6-dimethyl-N-[trans-2-phenylcyclopropyl]-4,6-dihydropyrrolo[3,4-c]pyrazole-5(1H)-carboxamide] yielded a Ki of 780 nM. Against the preceding compound, the Ki is about 14-fold higher. Compound `COc1nc(Nc2n[nH]c3c2CN(C(=O)N[C@@H]2C[C@H]2c2ccccc2)C3(C)C)nc(N2CCCC2)n1` (relative stereo) [Example 19, 3-[(4-methoxy-6-pyrrolidin-1-yl-1,3,5-triazin-2-yl)amino]-6,6-dimethyl-N-[trans-2-phenylcyclopropyl]-4,6-dihydropyrrolo[3,4-c]pyrazole-5(1H)-carboxamide] had a Ki of 190 nM.

On to `CC1(C)c2[nH]nc(Nc3nccc(C(F)(F)F)n3)c2CN1C(=O)N[C@H]1C[C@@H]1c1ccccc1` (relative stereo) [Example 28, 6,6-dimethyl-N-[trans-2-phenylcyclopropyl]-3-{[4-(trifluoromethyl)pyrimidin-2-yl]amino}-4,6-dihydropyrrolo[3,4-c]pyrazole-5(1H)-carboxamide], for which the Ki stood at 270 nM. `Cc1cc2c(Nc3n[nH]c4c3CN(C(=O)O[C@H](CN(C)C)c3ccccc3)C4(C)C)ncnc2s1` [Example 71, (1S)-2-(dimethylamino)-1-phenylethyl 6,6-dimethyl-3-[(6-methylthieno[2,3-d]pyrimidin-4-yl)amino]-4,6-dihydropyrrolo[3,4-c]pyrazole-5(1H)-carboxylate] came in with a Ki of 5.2 nM. For `CC1(C)c2[nH]nc(Nc3ncncc3F)c2CN1C(=O)N[C@H]1C[C@@H]1c1ccccc1` (relative stereo) [Example 48, 3-[(5-fluoropyrimidin-4-yl)amino]-6,6-dimethyl-N-[trans-2-phenylcyclopropyl]-4,6-dihydropyrrolo[3,4-c]pyrazole-5(1H)-carboxamide], the affinity, expressed as Ki, was 1000 nM.

In the case of `COc1nc(Nc2n[nH]c3c2CN(C(=O)NC2CC2c2ccccc2)C3(C)C)nc(N2CCC[C@H]2C(N)=O)n1` (stereo partly drawn) [Example 21, 3-({4-[(2S)-2-(aminocarbonyl)pyrrolidin-1-yl]-6-methoxy-1,3,5-triazin-2-yl}amino)-6,6-dimethyl-N-[trans-2-phenylcyclopropyl]-4,6-dihydropyrrolo[3,4-c]pyrazole-5(1H)-carboxamide], the Ki was determined as 240 nM. Compound `Cc1cc(C)nc(Nc2n[nH]c3c2CN(C(=O)NC2C[C@@H]2c2ccccc2)C3(C)C)n1` (some centres unmarked) [Example 24] yielded a Ki of 640 nM. In turn, `CSc1nc(Nc2n[nH]c3c2CN(C(=O)N[C@@H]2C[C@H]2c2ccccc2)C3(C)C)cc(C(F)(F)F)n1` (relative stereo) [Example 11, 6,6-dimethyl-3-{[2-(methylthio)-6-(trifluoromethyl)pyrimidin-4-yl]amino}-N-[trans-2-phenylcyclopropyl]-4,6-dihydropyrrolo[3,4-c]pyrazole-5(1H)-carboxamide] had a Ki of 960 nM. Compound `Cc1csc2c(Nc3n[nH]c4c3CN(C(=O)N3C[C@@H]5CCCN5C[C@@H]3C)C4(C)C)ncnc12` [Example 81, N-(6,6-dimethyl-5-{[(3S,8aS)-3-methylhexahydropyrrolo[1,2-a]pyrazin-2(1H)-yl]carbonyl}-1,4,5,6-tetrahydropyrrolo[3,4-c]pyrazol-3-yl)-7-methylthieno[3,2-d]pyrimidin-4-amine] registered a Ki of 84 nM. Under `Cc1ncnc(Nc2n[nH]c3c2CN(C(=O)N2C[C@@H]4CCCN4C[C@@H]2C)C3(C)C)c1F` [Example 82, N-(5-fluoro-6-methylpyrimidin-4-yl)-6,6-dimethyl-5-{[(3S,8aS)-3-methylhexahydropyrrolo[1,2-a]pyrazin-2(1H)-yl]carbonyl}-1,4,5,6-tetrahydropyrrolo[3,4-c]pyrazol-3-amine] stands 2500 nM.

`CNC(=O)[C@@H]1CCCN1c1nc(Nc2n[nH]c3c2CN(C(=O)NC2CC2c2ccccc2)C3(C)C)nc(OC)n1` (some centres unmarked) [Example 17] had a Ki of 770 nM. In the case of `Cc1cc(C(F)(F)F)cc(Nc2n[nH]c3c2CN(C(=O)N[C@H]2C[C@@H]2c2ccccc2)C3(C)C)n1` (relative stereo) [Example 26, 3-[(4-trifluoromethyl-6-methylpyridin-2-yl)amino]-6,6-dimethyl-N-[trans-2-phenylcyclopropyl]-4,6-dihydropyrrolo[3,4-c]pyrazole-5(1H)-carboxamide] it was 220 nM; in that of `CC1(C)c2[nH]nc(Nc3cc(C#N)ccn3)c2CN1C(=O)N[C@H]1C[C@@H]1c1ccccc1` (relative stereo) [Example 29, 3-[(4-cyanopyridin-2-yl)amino]-6,6-dimethyl-N-[trans-2-phenylcyclopropyl]-4,6-dihydropyrrolo[3,4-c]pyrazole-5(1H)-carboxamide], 660 nM; in that of `CC1(C)c2[nH]nc(Nc3cccc(C(F)(F)F)n3)c2CN1C(=O)N[C@H]1C[C@@H]1c1ccccc1` (relative stereo) [Example 27, 3-[(6-trifluoromethylpyridin-2-yl)amino]-6,6-dimethyl-N-[trans-2-phenylcyclopropyl]-4,6-dihydropyrrolo[3,4-c]pyrazole-5(1H)-carboxamide], 200 nM. For the compound `COc1nc(Nc2n[nH]c3c2CN(C(=O)NC2CC2c2ccccc2)C3(C)C)nc(N2CC2C)n1` (stereo not drawn) [Example 18, 3-{[4-methoxy-6-(2-methylaziridin-1-yl)-1,3,5-triazin-2-yl]amino}-6,6-dimethyl-N-[trans-2-phenylcyclopropyl]-4,6-dihydropyrrolo[3,4-c]pyrazole-5(1H)-carboxamide], the Ki is 340 nM. Compared with the last compound, the Ki is about 1.7-fold higher. `CC1(C)c2[nH]nc(Nc3nc(N)nc(Cl)n3)c2CN1C(=O)N[C@@H]1C[C@H]1c1ccccc1` (relative stereo) [Example 8, 3-[(4-amino-6-chloro-1,3,5-triazin-2-yl)amino]-6,6-dimethyl-N-[trans-2-phenylcyclopropyl]-4,6-dihydropyrrolo[3,4-c]pyrazole-5(1H)-carboxamide] came in with a Ki of 610 nM. Turning to `CCc1cc(Nc2n[nH]c3c2CN(C(=O)N[C@H](CN(C)C)c2ccccc2)C3(C)C)ncn1` [Example 54, N-[(1S)-2-(Dimethylamino)-1-phenylethyl]-3-[(6-ethylpyrimidin-4-yl)amino]-6,6-dimethyl-4,6-dihydropyrrolo[3,4-c]pyrazole-5(1H)-carboxamide], the Ki is 140 nM. Under `CC1(C)c2[nH]nc(Nc3ncnc4ccccc34)c2CN1C(=O)N[C@@H]1C[C@H]1c1ccccc1` (relative stereo) [Example 85, 3-(quinazolin-4-ylamino)-6,6-dimethyl-N-[trans-2-phenylcyclopropyl]-4,6-dihydropyrrolo[3,4-c]pyrazole-5(1H)-carboxamide] stands 100 nM; under `CN(C)C[C@@H](NC(=O)N1Cc2c(Nc3ncnc4c3ncn4C)n[nH]c2C1(C)C)c1ccccc1` [Example 57, N-[(1S)-2-(dimethylamino)-1-phenylethyl]-6,6-dimethyl-3-[(9-methyl-9H-purin-6-yl)amino]-4,6-dihydropyrrolo[3,4-c]pyrazole-5(1H)-carboxamide], 940 nM. In turn, `COc1nc(Nc2n[nH]c3c2CN(C(=O)N[C@H]2C[C@@H]2c2ccccc2)C3(C)C)nc(OC)n1` (relative stereo) [Example 14, 3-[(4,6-dimethoxy-1,3,5-triazin-2-yl)amino]-6,6-dimethyl-N-[trans-2-phenylcyclopropyl]-4,6-dihydropyrrolo[3,4-c]pyrazole-5(1H)-carboxamide] returned a Ki of 270 nM.
